# Data reported in PubChem BioAssay (NCI).
#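 Assay format: 96-well plates, 48-hour exposure. Abbreviation: GI50, concentration required for 50% inhibition of growth. TGI is the concentration that stops growth completely.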
# Tests used:
# Assay in all cases: NCI tumour cell line growth inhibition, 48 h
# [1] = system: OVCAR-8 ovarian
# [2] = system: MDA-MB-435
# [3] = system: SF-539 CNS
# [4] = system: MALME-3M melanoma
# [5] = system: SK-MEL-5 melanoma
# [6] = system: SK-OV-3 ovarian
# [7] = system: MDA-MB-231 breast
# [8] = system: KM12 colon
# [9] = system: OVCAR-4 ovarian
# [10] = system: K-562 leukemia
# [11] = system: CCRF-CEM leukemia
# [12] = system: 786-0 renal
# [13] = system: HS 578T breast
# [14] = system: MCF7 breast
# [15] = system: COLO 205 colon
# [16] = system: SK-MEL-2 melanoma
# [17] = system: TK-10 renal
# [18] = system: M14 melanoma
# [19] = system: NCI-H522 lung
# [20] = system: T-47D breast
# [21] = system: NCI-H23 lung
# [22] = system: HL-60(TB) leukemia
# [23] = system: NCI/ADR-RES ovarian
# [24] = system: SNB-19 CNS
# [25] = system: OVCAR-5 ovarian
# [26] = system: A549 NSCLC
# [27] = system: HCC-2998 colon
# [28] = system: LOX IMVI melanoma
# [29] = system: BT-549 breast
structure (smiles),measurement,setting,value
Cn1ccnc1C(=O)/C=C/c1ccc(CNC(=O)c2ccc(F)cc2)cc1,TGI,[1],> 25 µM
same,GI50,[2],4.08 µM
same,TGI,[2],10.4 µM
same,GI50,[3],2.59 µM
same,TGI,[3],6.28 µM
same,GI50,[4],4.48 µM
same,TGI,[4],12.2 µM
same,GI50,[5],7.08 µM
same,TGI,[5],21 µM
same,GI50,[6],7.54 µM
same,TGI,[6],> 25 µM
same,GI50,[7],5.9 µM
same,TGI,[7],> 25 µM
same,GI50,[8],2.13 µM
same,TGI,[8],5.44 µM
same,GI50,[9],5.49 µM
same,TGI,[9],> 25 µM
same,GI50,[10],1.02 µM
same,TGI,[10],> 25 µM
same,GI50,[11],2.55 µM
same,TGI,[11],> 25 µM
same,GI50,[12],4.12 µM
same,TGI,[12],12.1 µM
same,GI50,[13],8.13 µM
same,TGI,[13],> 25 µM
same,GI50,[14],1.67 µM
same,TGI,[14],> 25 µM
same,GI50,[15],2.78 µM
same,TGI,[15],7.05 µM
same,GI50,[16],4.95 µM
same,TGI,[16],14.8 µM
same,GI50,[17],5.92 µM
same,TGI,[17],17.4 µM
same,GI50,[18],4.7 µM
same,TGI,[18],12.2 µM
same,GI50,[19],4.04 µM
same,TGI,[19],7.74 µM
same,GI50,[20],2.54 µM
same,TGI,[20],22.9 µM
same,GI50,[21],3.58 µM
same,TGI,[21],9.3 µM
same,GI50,[22],2.99 µM
same,TGI,[22],10.4 µM
same,GI50,[23],6.06 µM
same,TGI,[23],> 25 µM
same,GI50,[24],3.39 µM
same,TGI,[24],10.5 µM
same,GI50,[25],3.54 µM
same,TGI,[25],9.04 µM
same,GI50,[26],5.74 µM
same,TGI,[26],> 25 µM
same,GI50,[27],3.8 µM
same,TGI,[27],7.54 µM
same,GI50,[28],1.19 µM
same,TGI,[28],4.4 µM
same,GI50,[29],2.61 µM
same,TGI,[29],6.77 µM
